Measured values reported in patent US6403831B1, “Substituted benzylidene indenyl formamides, acetamides and propionamides” (Cell Pathways, Inc., priority 1996, dated 2002).
Marks after values point to notes of the source that are not given here.

Key:
[1] = tested on: SW-480 colon adenocarcinoma cells; assay: Apoptosis by DNA fragmentation (Cell Death Detection ELISA plus); format: cell-based, human; details: SW-480 cells, 48 hrs; for EC50: by software or estimated from effective concentration range; for DNA Fragmentation FS (100 μM): fold stimulation FS=ODmax/ODveh
Description: Apoptosis was also measured based on the amount of fragmented DNA contained in cell lysates. Briefly, SW-480 colon adenocarcinoma cells were plated in 96-well microtitre plates (“MTP”) at a density of 10K cells/well in 180 μl and incubated for 24 hrs. Cells were then treated with 20 μl aliquots of appropriately diluted compound, and allowed to incubate for an additional 48 hrs.
After the incubation, samples were prepared according to the following steps. The MTP was centrifuged (15 min., 1000 rpm) and the supernatant was carefully removed by fast inversion of the MTP. The cell pellents in each well were then resuspended in ^200 μl lysis buffer and incubated for 45 min. at room temperature to lyse the cells. The lysates were then centrifuged (15 min., 1000 rpm) and 20 μl aliquots of the supernatant (=cytoplasmic fraction) were transferred into the streptavidin coated MTP for analysis. Care was taken not to shake the lysed pellets in the MTP (=cell nucleii containing high molecular weight, unfragmented DNA). Samples were analyzed immediately, because storage at 4 C or −20 C reduces the ELISA-signals.
Samples were then processed according to a DNA fragmentation assay protocol, and dose-response curves were generated based on optical density readings. Quantification of DNA was done by a commercially available photometric enzyme-immunoassay manufactured by Mannheim-Boehringer under the name “Cell Death Detection ELISA^plus”. The assay is based on a quantitative sandwich-enzyme-immunoassay-principle using mouse monoclonal antibodies directed against DNA and histones, respectively. This allows the specific determination of mono and oligonucleosomes in the cytoplasmatic fraction of cell lysates. In brief, the assay procedure is as follows. The sample (cell-lysate, serum, culture-supernatant etc.) is placed into a streptavidin-coated MTP. Subsequently, a mixture of anti-histone-biotin and anti-DNA-POD are added and incubated for 2 hours. During the incubation period, the anti-histone antibody binds to the histone-component of the nucleosomes and simultaneously fixes the immunocomplex to the streptavidin-coated MTP via its biotinylation. Additionally, the anti-DNA-POD antibody reacts with the DNA component of the nucleosomes. After removal of unbound antibodies by a washing step, the amount of nucleosomes is quantified by the POD retained in the immunocomplex. POD is determined photometrically with ABTS® (2,2′-Azino-di[3-ethylbenzthiazolin-sulfonat])* as substrate.
Fold stimulation (FS=ODmax/ODveh), an indicator of apoptotic response, was determined for each compound tested. EC50 values were determined either specifically by data analysis software, or by estimates based on the effective concentration range of each compound (ECR=min. effective dose-min. dose to peak effect). These FS and EC50 values for the tested compounds are listed above in Table 6.

[2] = tested on: human colon carcinoma cell line, SW-480; assay: Growth inhibition, Sulforhodamine B (SRB) protein binding assay; format: cell-based; details: SW-480 cell line, six days continuous exposure
Description: These compounds were assayed for their growth inhibitory activity on the human colon carcinoma cell line, SW-480 obtained from ATCC (Rockville, Md.), to ascertain the degree of growth inhibition. Growth inhibition of this cell line is indicative of a benefit on precancerous lesions and neoplasms. The cell line and growth assay employed for these experiments are well characterized, and are used to evaluate the anti-neoplastic properties of NSAIDs. The assay is used by the United States National Cancer Institute in its screening program for new anti-cancer drugs.
Drug stock solutions were made in 100% DMSO then diluted with RPMI media for cell culture testing. All drug solutions were prepared fresh on the day of testing. The cultured cells were obtained at passage #99 and grown in RPMI media supplemented with 5% fetal calf serum, and 2 mM glutamine, 100 U/ml penicillin, 100 U/ml streptomycin, and 0.25 μg/ml amphotericin. The cultures were maintained in a humidified atmosphere of 95% air and 5% CO2 at 37° C. The cultures were passaged at preconfluent densities using a solution of 0.05% trypsin and 0.53 mM EDTA. Cells were plated at 1000 cells/well for 96 well flat-bottom microtiter plates.
Tumor cell growth inhibition was assessed using the Sulforhodamine B (SRB) protein binding assay. In this assay, tumor cells were plated in 96-well plates and treated with drug-containing media for six days (continuous exposure). For each plate, 6 wells were designated as no treatment controls, six wells as vehicle (0.1% DMSO) controls, and the remaining wells for drug dilutions with three wells per drug concentration. At the end of the exposure period, the cells were fixed and stained with sulforhodamine B, a protein binding dye. The dye was then solubilized, and the optical density of the resulting solution was determined on a 96-well plate reader. The mean dye intensity of the treated wells was then divided by the mean dye intensity in the control wells (6 wells of each) to determine the effect of the drug on the cells. Dye intensity is proportional to the number of cells or amount of protein per well. The resultant “percent inhibition” value then represents the degree of growth inhibition caused by the drug.
For each experiment, an IC50 value was determined and used for comparative purposes. This value is equivalent to the concentration of drug needed to inhibit tumor cell growth by 50%. IC50 values were obtained graphically by connecting the mean values for each drug concentration tested. Each experiment included at least three wells per drug concentration. Concentration was plotted on a log scale on the X-axis.

COX I = target: T1, COX I (Ovis aries, UniProt P05979); assay: Cyclooxygenase (COX) inhibition, purified COX; format: biochemical; details: purified COX from ram seminal vesicles; for COX I % Inhibition (100 μM): 100 μM test compound, arachidonic acid 100 μM; for COX I % Inhibition (values marked *): values marked *: 1000 μM test compound
T1 construct: The COX was purified form ram seminal vesicles; from tissue; host or cells: ram seminal vesicles
T1 sequence (P05979 25-600): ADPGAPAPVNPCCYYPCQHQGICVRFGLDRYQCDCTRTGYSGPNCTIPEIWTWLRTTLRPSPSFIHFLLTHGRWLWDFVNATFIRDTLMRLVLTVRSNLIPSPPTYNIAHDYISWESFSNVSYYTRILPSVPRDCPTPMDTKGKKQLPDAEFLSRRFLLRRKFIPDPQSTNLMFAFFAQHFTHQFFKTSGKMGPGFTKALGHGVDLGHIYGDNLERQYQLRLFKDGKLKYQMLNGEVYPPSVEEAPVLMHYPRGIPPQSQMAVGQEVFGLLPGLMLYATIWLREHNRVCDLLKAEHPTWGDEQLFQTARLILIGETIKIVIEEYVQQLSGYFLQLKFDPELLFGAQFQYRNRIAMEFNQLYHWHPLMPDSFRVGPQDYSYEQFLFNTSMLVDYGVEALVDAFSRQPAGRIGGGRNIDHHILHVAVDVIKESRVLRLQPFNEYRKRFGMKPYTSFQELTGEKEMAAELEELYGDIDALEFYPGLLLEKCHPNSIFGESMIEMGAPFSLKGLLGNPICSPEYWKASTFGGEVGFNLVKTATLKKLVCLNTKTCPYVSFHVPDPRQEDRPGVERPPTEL
Description: Compounds of this invention, as well as a positive control, sulindac sulfide were to determine whether they inhibited the production of cyclooxygenase (see Table 5 below).
COX catalyzes the formation of prostaglandins and thromboxane by the oxidative metabolism of arachidonic acid. The compounds of this invention were evaluated for inhibitory effects on purified COX. The COX was purified form ram seminal vesicles, as described by Boopathy, R. and Balasubramanian, J. 239:371-377, 1988. COX activity was assayed as described by Evans, A. T., et al., “Actions of cannabis constituents on enzymes of arachidonate metabolism anti-flammatory potential,” Biochem. Pharmacol., 36:2035-2037, 1987. Briefly, purified COX was incubated with arachidonic acid (100 μM) for 2.0 min at 37° C. in the presence or absence of test compounds. The assay was terminated buy the addition of TCA, and COX activity was determined by absorbance at 530 nm.

[3] = tested on: HT-29 human colon carcinoma cells; assay: Apoptosis by morphology (acridine orange/ethidium bromide, condensed chromatin); format: cell-based; details: HT-29 cells
Description: Apoptosis was measured using an assay of cell death based on morphological characteristics of apoptotic cells (i.e., condensed chromatin). Drug preparation and cell culture conditions were the same as for the SRB assay described above, except that HT-29 human colon carcinoma cells were employed/Confluent cultures were established in 12.5 cm^2 flasks by plating 0.5×10^6 cells/flask. The cultures were assayed for apoptosis by fluorescent microscopy following labeling with acridine orange and ethidium bromide. Floating and attached cells were collected by trypsinization and washed three times in PBS. One ml aliquots were centrifuged (3 g). The pellet was resuspended in 25 μl media and 1 μl of a dye mixture containing 100 μg/ml acridine orange and 100 μg/ml ethidium bromide prepared in PBS and mixed gently. Ten μl of mixture was placed on a microscope slide and covered with a 22 mm^2 coverslip and examined under 40×dry objectives using epillumination and filter combination.
An observer blinded to the identity of the treatments scored at least 100 cells per sample. Apoptotic cells were identified by nuclear condensation of chromatin stained by the acridine orange or ethidium bromide.

| Structure (SMILES) | IC50 [2] [µM] | COX I % Inhibition (100 μM) (COX I) [%] | COX I % Inhibition (values marked *) (COX I) | EC50 [1] [µM] | DNA Fragmentation FS (100 μM) [1] | Morphology % Apoptotic Cells (1 μM) [3] [%] |
| --- | --- | --- | --- | --- | --- | --- |
| C#CCNC(=O)CC1=C(C)/C(=C/c2cc(OC)c(OC)c(OC)c2)c2ccc(F)cc21 [Example 27, (Z)-5-fluoro-2-methyl-1-(3,4,5-trimethoxybenzylidene)-3-(N-propargyl)-indenylacetamide] | 0.22 | <25 |  | 0.7 | 4 | 71 |
| COc1cc(/C=C2/C(C)=C(CC(=O)Nc3ccccc3)c3cc(F)ccc32)cc(OC)c1OC [Example 22, (Z)-5-fluoro-2-methyl-1-(3,4,5-trimethoxybenzylidene)-3-(N-phenyl)-indenylacetamide] | 4.5 | <25 |  | 5 | 2.3 | 37 |
| COc1cc(/C=C2/C(C)=C(CC(=O)NCc3ccccc3)c3cc(F)ccc32)cc(OC)c1OC [Example 1, (Z)-5-fluoro-2-methyl-1-(3,4,5-trimethoxybenzylidene)-3-(N-Benzyl)-indenylacetamide] | 0.04 | <25 |  | 0.05 | 4.6 | 73 |
| COc1cc(/C=C2/C(C)=C(CC(=O)NCc3ccccn3)c3cc(F)ccc32)cc(OC)c1OC [Example 48] | 0.5 | <25 |  | 0.5 | 2.5 | 63 |

Now from value to molecule, other results behind:

| IC50 [2] [µM] | COX I % Inhibition (100 μM) (COX I) [%] | COX I % Inhibition (values marked *) (COX I) | Structure (SMILES) | EC50 [1] [µM] | DNA Fragmentation FS (100 μM) [1] | Morphology % Apoptotic Cells (1 μM) [3] [%] |
| --- | --- | --- | --- | --- | --- | --- |
| > 10 |  | 35* % | COc1cc(/C=C2/C(C)=C(CC(=O)N(Cc3ccccc3)c3ccccn3)c3cc(F)ccc32)cc(OC)c1OC [Example 38, (Z)-5-fluoro-2-methyl-1-(3,4,5-trimethoxybenzylidene)-3-(N-benzyl-N-(2-pyridinyl))-indenylacetamide] | > 10 | <2 | 20 |
| 0.98 | <25 |  | COc1cc(OC)c(OC)cc1/C=C1/C(C)=C(CC(=O)NCc2ccccc2)c2cc(F)ccc21 [Example 58, (Z)-5-fluoro-2-methyl-1-(2,4,5-trimethoxybenzylidene)-3-(N-benzyl)-indenylacetamide] | 0.7 | 2.5 | 52 |
| > 10 |  | 51* % | COc1cc(/C=C2/C(C)=C(CC(=O)NCCCN(C)C)c3cc(F)ccc32)cc(OC)c1OC [Example 44, (Z)-5-fluoro-2-methyl-1-(3,4,5-trimethoxybenzylidene)-3-(N-3-dimethylaminopropyl)-idenylacetamide] | > 10 | 2.7 | 25 |
| 5.2 |  | 30* % | CCOC(=O)CN(Cc1ccccc1)C(=O)CC1=C(C)/C(=C/c2cc(OC)c(OC)c(OC)c2)c2ccc(F)cc21 [Example 31, (Z)-5-fluoro-2-methyl-1-(3,4,5 trimethoxybenzylidene)-3-(N-benzyl-N-glycinylethyl ester)-indenylacetamide] | > 10 | <2 | 30 |
| 1.8 |  | 49* % | COc1cc(/C=C2/C(C)=C(CC(=O)NCc3ccccc3Br)c3cc(F)ccc32)cc(OC)c1OC [Example 33, (Z)-5-fluoro-2-methyl-1-(3,4,5-trimethoxybenzylidene)-3-(N-2-bromobenzyl)-indenylacetamide] | 4 | 3.7 | 28 |
| > 10 |  | 34* % | COc1cc(/C=C2/C(C)=C(CC(=O)NCCCc3ccccc3)c3cc(F)ccc32)cc(OC)c1OC [Example 40, (Z)-5-fluoro-2-methyl-1-(3,4,5-trimethoxybenzylidene)-3-(N-3-phenylpropyl)-indenylacetamide] | > 10 | <2 | <20 |
